{"source": "patent US6864262B2", "about": "“1-(2-m-methanesulfonamidophenylethyl)-4-(m-trifluoromethylphenyl) piperazine and pharmaceutically acceptable salts and solvents thereof” (Eli Lilly and Company, priority 2000, dated 2005)", "key": {"Adult female cats": {"system": "Adult female cats", "assay": "Transvesical cystometrograms and periurethral EMG in anesthetized cats, acetic acid infusion", "procedure": "Adult female cats were anesthetized with alpha chloralose (50-75 mg/kg i.v.) One catheter was inserted into the carotid artery for measuring systemic blood pressure and heart rate. A second catheter was inserted in the radial vein for administering drugs. Following a midline laparotomy, the bladder was cannulated through the dome to allow infusion of fluids and recording of intravesical pressure. The urethra remained patent to allow expulsion of fluids during reflex micturition.\nTransvesical cystometrograms (CMGs) were recorded by emptying the bladder, beginning infusion (0.5 ml/min) with saline, and noting the volume at which fluid release and bladder contraction occurred (i.e. micturition). This volume is defined as bladder capacity. EMG activity was recorded from the periurethral musculature with bipolar hook electrodes placed within 0.5 cm of the urethral meatus via an intravaginal approach. After establishing bladder capacity and EMG activity under conditions of saline infusion, the infusion cannula was switched to infuse 0.5% acetic acid solution and cystometry repeated.\nFollowing cystometry, the bladder was allowed to continuously fill, which produced rhythmic bladder contractions accompanied by fluid release. During this time of rhythmic bladder activity, vehicle or drug was administered. Within 5 minutes, the bladder was emptied; another CMG was performed, and bladder capacity and EMG activity were again measured. The bladder was then continuously filled to produce rhythmic contractions with fluid release, and the frequency of these rhythmic contractions was measured over a fifteen minute period to record drug effects on contraction frequency. This procedure was repeated with increasing doses of drug to produce a cumulative dose response curve.\nAll other drugs were dissolved in saline."}, "5-HT1D [1]": {"molecular_target": "T1, 5-HT1D (Homo sapiens, UniProt P28221)", "T1 construct": "expressed in transfected cells", "T1 sequence (P28221 whole entry)": "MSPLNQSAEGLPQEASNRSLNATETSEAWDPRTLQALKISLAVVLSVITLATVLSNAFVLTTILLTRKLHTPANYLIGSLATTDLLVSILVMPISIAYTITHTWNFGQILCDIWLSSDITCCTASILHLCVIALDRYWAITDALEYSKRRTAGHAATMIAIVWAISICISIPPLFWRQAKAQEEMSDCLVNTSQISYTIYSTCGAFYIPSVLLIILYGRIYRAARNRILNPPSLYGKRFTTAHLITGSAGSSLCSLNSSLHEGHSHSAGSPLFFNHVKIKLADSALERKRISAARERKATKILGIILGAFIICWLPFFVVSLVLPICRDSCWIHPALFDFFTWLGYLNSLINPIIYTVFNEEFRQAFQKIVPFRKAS", "assay": "Functional data in cloned human serotonin receptors", "type": "biochemical"}, "5-HT7": {"molecular_target": "T2, 5-HT7 (Homo sapiens, UniProt P34969)", "T2 construct": "expressed in transfected cells", "T2 sequence (P34969 whole entry)": "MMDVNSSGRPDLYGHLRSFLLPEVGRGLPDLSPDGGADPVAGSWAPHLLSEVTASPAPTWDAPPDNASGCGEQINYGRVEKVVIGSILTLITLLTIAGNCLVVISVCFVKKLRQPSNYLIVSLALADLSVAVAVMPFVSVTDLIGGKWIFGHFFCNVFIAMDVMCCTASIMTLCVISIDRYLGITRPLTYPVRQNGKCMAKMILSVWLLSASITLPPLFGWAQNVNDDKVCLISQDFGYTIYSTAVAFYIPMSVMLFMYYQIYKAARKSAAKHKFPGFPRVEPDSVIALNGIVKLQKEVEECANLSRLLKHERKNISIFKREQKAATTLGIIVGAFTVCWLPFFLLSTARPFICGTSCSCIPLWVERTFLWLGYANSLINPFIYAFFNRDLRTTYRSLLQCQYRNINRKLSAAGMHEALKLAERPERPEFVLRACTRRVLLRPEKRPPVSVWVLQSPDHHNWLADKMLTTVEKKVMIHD", "assay": "Binding affinity at cloned human serotonin receptors"}, "5-HT1D [2]": {"molecular_target": "T1, 5-HT1D", "assay": "Binding affinity at cloned human serotonin receptors"}, "5-HT1F [3]": {"molecular_target": "T3, 5-HT1F (Homo sapiens, UniProt P30939)", "T3 construct": "expressed in transfected cells", "T3 sequence (P30939 1-366)": "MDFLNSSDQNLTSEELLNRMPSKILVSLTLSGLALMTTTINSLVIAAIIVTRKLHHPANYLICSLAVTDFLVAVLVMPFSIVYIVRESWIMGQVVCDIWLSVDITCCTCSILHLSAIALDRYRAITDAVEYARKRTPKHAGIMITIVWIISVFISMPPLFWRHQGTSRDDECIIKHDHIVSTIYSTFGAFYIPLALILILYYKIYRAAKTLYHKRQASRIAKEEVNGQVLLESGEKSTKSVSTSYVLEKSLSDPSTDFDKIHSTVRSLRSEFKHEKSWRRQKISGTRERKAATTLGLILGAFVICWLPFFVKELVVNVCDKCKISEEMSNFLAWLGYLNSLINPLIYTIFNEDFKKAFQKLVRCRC", "assay": "Functional data in cloned human serotonin receptors", "type": "biochemical"}, "5-HT1E": {"molecular_target": "T4, 5-HT1E (Homo sapiens, UniProt P28566)", "T4 construct": "expressed in transfected cells", "T4 sequence (P28566 whole entry)": "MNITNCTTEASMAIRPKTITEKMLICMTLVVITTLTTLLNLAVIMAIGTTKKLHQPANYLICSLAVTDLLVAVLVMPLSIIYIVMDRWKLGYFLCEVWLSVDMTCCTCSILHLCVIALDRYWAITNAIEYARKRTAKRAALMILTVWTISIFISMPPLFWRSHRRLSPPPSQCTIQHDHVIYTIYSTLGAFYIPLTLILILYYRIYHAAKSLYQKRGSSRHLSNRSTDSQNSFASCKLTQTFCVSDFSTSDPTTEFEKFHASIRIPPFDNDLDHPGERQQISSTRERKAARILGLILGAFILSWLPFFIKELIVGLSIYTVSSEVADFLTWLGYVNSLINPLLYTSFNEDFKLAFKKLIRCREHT", "assay": "Binding affinity at cloned human serotonin receptors"}, "5-HT1A [4]": {"molecular_target": "T5, 5-HT1A (Homo sapiens, UniProt P08908)", "T5 construct": "expressed in transfected cells", "T5 sequence (P08908 1-422)": "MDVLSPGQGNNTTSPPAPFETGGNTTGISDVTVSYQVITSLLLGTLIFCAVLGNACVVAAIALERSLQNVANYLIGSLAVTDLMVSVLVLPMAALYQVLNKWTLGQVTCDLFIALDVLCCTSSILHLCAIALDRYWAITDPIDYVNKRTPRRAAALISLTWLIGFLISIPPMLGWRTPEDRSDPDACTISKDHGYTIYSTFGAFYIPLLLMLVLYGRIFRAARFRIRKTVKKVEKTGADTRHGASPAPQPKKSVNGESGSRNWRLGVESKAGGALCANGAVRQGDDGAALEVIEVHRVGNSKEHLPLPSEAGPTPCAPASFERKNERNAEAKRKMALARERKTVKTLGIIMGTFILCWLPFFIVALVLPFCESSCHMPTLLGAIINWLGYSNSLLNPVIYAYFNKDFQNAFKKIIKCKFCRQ", "assay": "Functional data in cloned human serotonin receptors", "type": "biochemical"}, "5-HT1B [5]": {"molecular_target": "T6, 5-HT1B (Homo sapiens, UniProt P28222)", "T6 construct": "expressed in transfected cells", "T6 sequence (P28222 whole entry)": "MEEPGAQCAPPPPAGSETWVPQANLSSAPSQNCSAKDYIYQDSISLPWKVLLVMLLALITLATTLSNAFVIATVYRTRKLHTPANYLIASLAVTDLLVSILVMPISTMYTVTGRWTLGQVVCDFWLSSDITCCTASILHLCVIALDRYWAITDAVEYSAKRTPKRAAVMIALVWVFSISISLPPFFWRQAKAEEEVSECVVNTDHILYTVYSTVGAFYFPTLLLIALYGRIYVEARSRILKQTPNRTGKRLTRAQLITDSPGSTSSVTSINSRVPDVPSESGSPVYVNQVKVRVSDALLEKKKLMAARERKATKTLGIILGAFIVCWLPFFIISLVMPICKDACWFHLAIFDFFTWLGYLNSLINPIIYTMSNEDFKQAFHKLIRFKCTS", "assay": "Binding affinity at cloned human serotonin receptors"}, "5-HT1B [6]": {"molecular_target": "T6, 5-HT1B", "assay": "Functional data in cloned human serotonin receptors", "type": "biochemical"}, "5-HT1A [7]": {"molecular_target": "T5, 5-HT1A", "assay": "Binding affinity at cloned human serotonin receptors"}, "5-HT1F [8]": {"molecular_target": "T3, 5-HT1F", "assay": "Binding affinity at cloned human serotonin receptors"}, "[9]": {"conditions": "anesthetized cat, i.v., cumulative doses, acetic acid infusion"}, "[10]": {"conditions": "listed as compound of formula I"}, "[11]": {"conditions": "vs 1-(2-p-methanesulfonamidophenylethyl)-4-(m-trifluoromethylphenyl)piperazine"}}, "data": [{"smiles": "CS(=O)(=O)Nc1cccc(CCN2CCN(c3cccc(C(F)(F)F)c3)CC2)c1.Cl", "values": [{"measurement": "melting point", "result": "198 to 199", "unit": "°C"}]}, {"smiles": "COc1ccc(NC(=O)c2ccc(-c3ccc(-c4noc(C)n4)cc3C)cc2)cc1N1CCN(C)CC1", "note": "[GR127935, reference compound]", "values": [{"measurement": "bladder capacity", "setting": "Adult female cats; [9]", "result": "dose-dependent increases"}, {"measurement": "external urethral sphincter (EUS) EMG activity", "setting": "Adult female cats; [9]", "result": "increase"}, {"measurement": "frequency of micturition contractions", "setting": "Adult female cats; [9]", "result": "reduced"}]}, {"smiles": "COc1ccccc1N1CCN(CCN(C(=O)C2CCCCC2)c2ccccn2)CC1", "note": "[WAY100635, reference compound]", "values": [{"measurement": "reversal of hypotension, bradycardia, decrease in contraction frequency and increase in EMG activity induced by the compound of Formula I", "setting": "Adult female cats; anesthetized cat, WAY100635 given after compound of Formula I", "result": "partially reversed"}]}, {"smiles": "CS(=O)(=O)Nc1cccc(CCN2CCN(c3cccc(C(F)(F)F)c3)CC2)c1", "note": "[LY217101, 1-(2-m-methanesulfonamidophenylethyl)-4-(m-trifluoromethylphenyl)piperazine]", "values": [{"measurement": "Emax", "setting": "5-HT1D [1]", "result": 93.4, "unit": "%"}, {"measurement": "functional character at 5-HT1D", "setting": "5-HT1D [1]; listed as Formula 1", "result": "Agonist"}, {"measurement": "functional character at 5-HT1D", "setting": "5-HT1D [1]; [10]", "result": "agonist"}, {"measurement": "Ki", "setting": "5-HT7", "result": 104, "unit": "nM"}, {"measurement": "Ki", "setting": "5-HT1D [2]", "result": 1.2, "unit": "nM"}, {"measurement": "fold higher affinity for the 5-HT1D receptor than the p-regioisomer", "setting": "5-HT1D [2]; [11]", "result": 45, "unit": "fold"}, {"measurement": "Emax", "setting": "5-HT1F [3]", "result": 95.5, "unit": "%"}, {"measurement": "Ki", "setting": "5-HT1E", "result": 3880, "unit": "nM"}, {"measurement": "functional character at 5-HT1A", "setting": "5-HT1A [4]; listed as Formula 1", "result": "Agonist"}, {"measurement": "functional character at 5-HT1A", "setting": "5-HT1A [4]; [10]", "result": "agonist"}, {"measurement": "EMG activity", "setting": "Adult female cats; LY217101 given after WAY100635", "result": "no longer produces"}, {"measurement": "bladder capacity", "setting": "Adult female cats; LY217101 given after WAY100635", "result": "increase"}, {"measurement": "bradycardia", "setting": "Adult female cats; LY217101 given after WAY100635", "result": "no longer produces"}, {"measurement": "frequency of micturition contractions", "setting": "Adult female cats; LY217101 given after WAY100635", "result": "continued to reduce"}, {"measurement": "hypotension", "setting": "Adult female cats; LY217101 given after WAY100635", "result": "no longer produces"}, {"measurement": "bradycardia", "setting": "Adult female cats; anesthetized cat, i.v.", "result": "induced"}, {"measurement": "hypotension", "setting": "Adult female cats; anesthetized cat, i.v.", "result": "induced"}, {"measurement": "bladder capacity", "setting": "Adult female cats; [9]", "result": "dose-dependent increases"}, {"measurement": "external urethral sphincter (EUS) EMG activity", "setting": "Adult female cats; [9]", "result": "increase"}, {"measurement": "frequency of micturition contractions", "setting": "Adult female cats; [9]", "result": "reduced"}, {"measurement": "Ki", "setting": "5-HT1B [5]", "result": 1.7, "unit": "nM"}, {"measurement": "fold higher affinity for the 5-HT1B receptor than the p-regioisomer", "setting": "5-HT1B [5]; [11]", "result": 56, "unit": "fold"}, {"measurement": "Emax", "setting": "5-HT1B [6]", "result": 88.2, "unit": "%"}, {"measurement": "functional character at 5-HT1B", "setting": "5-HT1B [6]; listed as Formula 1", "result": "Agonist"}, {"measurement": "functional character at 5-HT1B", "setting": "5-HT1B [6]; [10]", "result": "agonist"}, {"measurement": "Ki", "setting": "5-HT1A [7]", "result": 0.95, "unit": "nM"}, {"measurement": "Ki", "setting": "5-HT1F [8]", "result": 32.3, "unit": "nM"}]}, {"smiles": "COc1ccc(CNC(=O)/C=C/c2ccc3[nH]cc(CCN(C)C)c3c2)cc1", "note": "[GR46611, reference compound]", "values": [{"measurement": "bladder capacity", "setting": "Adult female cats; [9]", "result": "dose-dependent increases"}, {"measurement": "external urethral sphincter (EUS) EMG activity", "setting": "Adult female cats; [9]", "result": "increase"}, {"measurement": "frequency of micturition contractions", "setting": "Adult female cats; [9]", "result": "reduced"}]}, {"smiles": "CS(=O)(=O)Nc1ccc(CCN2CCN(c3cccc(C(F)(F)F)c3)CC2)cc1", "note": "[1-(2-p-methanesulfonamidophenylethyl)-4-(m-trifluoromethylphenyl)piperazine, reference compound]", "values": [{"measurement": "Ki", "setting": "5-HT7", "result": 45, "unit": "nM"}, {"measurement": "Ki", "setting": "5-HT1D [2]", "result": 55.3, "unit": "nM"}, {"measurement": "% displacement, 5-HT1E", "setting": "5-HT1E; @ 1000 nM", "result": 5, "unit": "% @ 1000"}, {"measurement": "Ki", "setting": "5-HT1B [5]", "result": 9.49, "unit": "nM"}, {"measurement": "Ki", "setting": "5-HT1A [7]", "result": 3.45, "unit": "nM"}, {"measurement": "% displacement, 5-HT1F", "setting": "5-HT1F [8]; @ 1000 nM", "result": 14, "unit": "% @ 1000"}]}, {"smiles": "CS(=O)(=O)Nc1cccc(CCN2CCN(c3cccc(C(F)(F)F)c3)CC2)c1.O=C(O)C(=O)O", "values": [{"measurement": "melting point", "result": 164, "unit": "°C"}]}, {"smiles": "CN(C)CCc1c[nH]c2ccc(C[C@H]3COC(=O)N3)cc12", "note": "[zolmitriptan, reference compound]", "values": [{"measurement": "bladder capacity", "setting": "Adult female cats; [9]", "result": "dose-dependent increases"}, {"measurement": "external urethral sphincter (EUS) EMG activity", "setting": "Adult female cats; [9]", "result": "increase"}, {"measurement": "frequency of micturition contractions", "setting": "Adult female cats; [9]", "result": "reduced"}]}]}
